From paper PMC12365235, “Molecular mechanisms of thiazide-like diuretics-mediated inhibition of the human Na-Cl cotransporter” (Nature Communications, 2025) come the findings set out here.

The test addresses T1, NCCcryo (Homo sapiens, UniProt P55017, E240A).
T1 sequence (P55017 132-1021 E240A): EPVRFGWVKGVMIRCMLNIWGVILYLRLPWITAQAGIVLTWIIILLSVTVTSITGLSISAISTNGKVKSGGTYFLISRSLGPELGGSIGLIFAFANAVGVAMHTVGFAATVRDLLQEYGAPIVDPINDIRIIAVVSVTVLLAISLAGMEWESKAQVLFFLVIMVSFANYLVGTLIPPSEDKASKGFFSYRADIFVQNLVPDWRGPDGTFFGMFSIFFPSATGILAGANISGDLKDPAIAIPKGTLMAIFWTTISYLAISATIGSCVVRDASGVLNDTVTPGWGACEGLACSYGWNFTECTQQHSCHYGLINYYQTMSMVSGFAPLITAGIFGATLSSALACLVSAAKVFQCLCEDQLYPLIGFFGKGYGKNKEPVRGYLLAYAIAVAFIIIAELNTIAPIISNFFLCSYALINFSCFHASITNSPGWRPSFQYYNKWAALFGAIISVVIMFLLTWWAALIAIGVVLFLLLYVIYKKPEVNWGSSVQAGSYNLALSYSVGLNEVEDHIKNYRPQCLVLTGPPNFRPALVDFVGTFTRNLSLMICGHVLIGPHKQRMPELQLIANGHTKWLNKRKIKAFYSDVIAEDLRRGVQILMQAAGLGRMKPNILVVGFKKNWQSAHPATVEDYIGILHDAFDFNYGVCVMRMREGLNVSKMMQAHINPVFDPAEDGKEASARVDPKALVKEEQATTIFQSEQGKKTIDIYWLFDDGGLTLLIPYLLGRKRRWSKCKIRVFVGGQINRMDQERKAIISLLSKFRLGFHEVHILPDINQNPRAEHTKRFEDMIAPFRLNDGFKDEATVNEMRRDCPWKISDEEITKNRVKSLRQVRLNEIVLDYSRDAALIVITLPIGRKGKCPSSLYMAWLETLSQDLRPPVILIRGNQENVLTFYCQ
T1 sequence (A0A0G2KTI4 1-202 E76K partner): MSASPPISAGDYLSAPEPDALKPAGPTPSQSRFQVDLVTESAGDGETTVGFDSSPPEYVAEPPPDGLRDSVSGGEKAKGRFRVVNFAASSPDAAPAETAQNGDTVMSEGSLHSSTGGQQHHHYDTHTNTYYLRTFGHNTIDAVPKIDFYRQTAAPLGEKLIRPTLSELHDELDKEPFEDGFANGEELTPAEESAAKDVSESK
As to the kind of experiment: 125I- uptake assay, NCCcryo construct. Format: cell-based. Particulars: thiazide-sensitive iodide uptake; hNCC with DrNKCC1 NTD and E240A. How it is done: The NCCcryo construct consists of human NCC with its NTD (first 131 residues) replaced by that of zebrafish NKCC1 (first 202 residues), along with an E240A mutation and a Strep-tag II[69] at the N-terminus. The codon-optimized NCCcryo was cloned into a modified BacMam vector[70], which was then used for generating baculoviruses. HEK293S cells (3.0–3.5 × 10^6 cells per mL) were infected with the baculoviruses for NCCcryo, with sodium butyrate (10 mM) added 12–15 h afterwards, and the incubation temperature reduced to 30 °C. Two days after the addition of sodium butyrate, HEK293S cells were harvested.
HEK293S cell lines, cultured in 293 Freestyle medium (Life Technologies; plus 10% fetal bovine serum), stably expressing hNCC and its variants were generated following published protocols. Cells were transfected using Lipofectamine 3000 (Invitrogen) with a pSBbi-RP-based plasmid containing hNCC or its variants and the SB100X vector. Puromycin (2 μg/mL; Gemini Bio-Products) was used for selection of stable cell lines.
To prepare for the uptake experiment, cells were plated at 0.5 × 10^6 cells/well in 24-well plates one day in advance. […] Cells lysed using 1% sodium dodecyl sulfate (SDS) were analyzed by scintillation counting. […]

As usually defined, the IC50 is the point on the concentration scale where inhibition reaches its midpoint. A higher IC50 goes with weaker potency.

`NS(=O)(=O)c1cc(C2(O)NC(=O)c3ccccc32)ccc1Cl` (centres unmarked) [chlorthalidone] registered a 50% inhibitory concentration (IC50) of 0.02 µM.

As for `CC1Cc2ccccc2N1NC(=O)c1ccc(Cl)c(S(N)(=O)=O)c1` (centres unmarked) [indapamide], the half-inhibitory concentration (IC50) worked out at 0.0091 µM. Compared with the last compound, the IC50 is about 2.2-fold lower.
